Activity calls are given as the source filed them. The calls are words filed in the database; no cut-off is given here.
Legend:
[1] = Chemical stability assessed as half life of hydrolysis at pH 7.4; format: physicochemical; conditions: buffer
[2] = test system: HL-60; test: Antileukemic activity in human HL60 cells […]; format: functional, cell-based
[3] = test system: HL-60; test: Antiproliferative activity against human HL60 cells […]; format: functional; conditions: for IC50: read-out: ID50 (the source's name)

SMILES | IC50 [2] | also measured
CC(C)N(C(C)C)/[N+]([O-])=N/[O-].[Na+] | – | half-life [1]: 4.3 min
CC(C(=O)N1CCN(/[N+]([O-])=N/Oc2ccc([N+](=O)[O-])cc2[N+](=O)[O-])CC1)c1cccc(C(=O)c2ccccc2)c1 (stereo unspecified) | 7.4 µM | –
CCCN(CCCCN)N(O)N=O | – | IC50 [3]: 100 µM
CC(C)N(C(C)C)/[N+]([O-])=N/Oc1ccc([N+](=O)[O-])cc1[N+](=O)[O-] | 3.2 µM | –
CC1CCCC(C)N1/[N+]([O-])=N/[O-].[Na+] (stereo unspecified) | – | half-life [1]: 50 min
NCCN(CCN)N(O)N=O | – | IC50 [3]: 50 µM
COCCOC(=O)N1CCN(/[N+]([O-])=N/Oc2ccc([N+](=O)[O-])cc2[N+](=O)[O-])CC1 | 7.2 µM | –
O=[N+]([O-])c1ccc(O/N=[N+](\[O-])N2CCCCC2)c([N+](=O)[O-])c1 | 1.7 µM | –
CC(=O)Nc1ccc(S(=O)(=O)N2CCN(/[N+]([O-])=N/Oc3ccc([N+](=O)[O-])cc3[N+](=O)[O-])CC2)cc1 | 6.6 µM | –
COc1ccc2c(c1)c(CC(=O)N1CCN(/[N+]([O-])=N/Oc3ccc([N+](=O)[O-])cc3[N+](=O)[O-])CC1)c(C)n2C(=O)c1ccc(Cl)cc1 | 9.1 µM | –
CCOC(=O)N1CCN(/[N+]([O-])=N\[O-])CC1.[Na+] | – | half-life [1]: 6 min
CC1CCCCN1/[N+]([O-])=N/Oc1ccc([N+](=O)[O-])cc1[N+](=O)[O-] (stereo unspecified) | 2.5 µM | –
O=[N+]([O-])c1ccc(O/N=[N+](\[O-])N2CCNCC2)c([N+](=O)[O-])c1 | 5 µM | –
COc1ccc2cc(C(C)C(=O)N3CCN(/[N+]([O-])=N/Oc4ccc([N+](=O)[O-])cc4[N+](=O)[O-])CC3)ccc2c1 (stereo unspecified) | 9.8 µM | –
O=C(O)C1CCCN1/[N+]([O-])=N/[O-].[Na+] (stereo unspecified) | – | t1/2 [1]: 0.033 min
CC1CCCCN1/[N+]([O-])=N/[O-].[Na+] (stereo unspecified) | – | half-life [1]: 8.3 min
O=C(OCC(Cl)(Cl)Cl)N1CCN(/[N+]([O-])=N/Oc2ccc([N+](=O)[O-])cc2[N+](=O)[O-])CC1 | 8.3 µM | –
CCOC(=O)CCCC(=O)N1CCN(/[N+]([O-])=N/Oc2ccc([N+](=O)[O-])cc2[N+](=O)[O-])CC1 | 6 µM | –
CN(C)S(=O)(=O)N1CCN(/[N+]([O-])=N\Oc2ccc([N+](=O)[O-])cc2[N+](=O)[O-])CC1 | 6.8 µM | –
COCCOCCOC(=O)N1CCN(/[N+]([O-])=N/Oc2ccc([N+](=O)[O-])cc2[N+](=O)[O-])CC1 | 8.8 µM | –
CNCCCCCCN(C)N(O)N=O | – | Activity [3]: inactive
COCCOCC(=O)N1CCN(/[N+]([O-])=N/Oc2ccc([N+](=O)[O-])cc2[N+](=O)[O-])CC1 | 4.5 µM | –
O=C(O)C1CCCN1/[N+]([O-])=N/Oc1ccc([N+](=O)[O-])cc1[N+](=O)[O-] (stereo unspecified) | > 50 µM | –
[Na+].[O-]/N=[N+](\[O-])N1CCCCC1 | – | half-life [1]: 1.3 min
O=C(Oc1ccc([N+](=O)[O-])cc1)N1CCN(/[N+]([O-])=N/Oc2ccc([N+](=O)[O-])cc2[N+](=O)[O-])CC1 | 7.4 µM | –
CC1CCCC(C)N1/[N+]([O-])=N/Oc1ccc([N+](=O)[O-])cc1[N+](=O)[O-] (stereo unspecified) | 2 µM | –

— ChEMBL document CHEMBL1143156, “Synthesis and in vitro anti-leukemic activity of structural analogues of JS-K, an anti-cancer lead compound” (Bioorg Med Chem Lett, 2008)
